From patent US20050090524A1, “Novel adamantane derivatives” (priority 2002, published 2005)
Structures can show the parent of a compound that is named as a salt.

What was measured:
P2X7 receptor = target: T1, P2X7 receptor (Homo sapiens, UniProt Q99572); test: P2X7 receptor antagonist test: bbATP-induced ethidium bromide fluorescence in THP-1 cells; type: cell-based; settings: bbATP agonist, 37° C. for one hour, negative logarithm of concentration reducing bbATP agonist activity by 50%
T1 construct: 200 μl of a suspension of THP-1 cells; endogenous in cells; host or cells: THP-1 cells
T1 sequence (Q99572 1-595): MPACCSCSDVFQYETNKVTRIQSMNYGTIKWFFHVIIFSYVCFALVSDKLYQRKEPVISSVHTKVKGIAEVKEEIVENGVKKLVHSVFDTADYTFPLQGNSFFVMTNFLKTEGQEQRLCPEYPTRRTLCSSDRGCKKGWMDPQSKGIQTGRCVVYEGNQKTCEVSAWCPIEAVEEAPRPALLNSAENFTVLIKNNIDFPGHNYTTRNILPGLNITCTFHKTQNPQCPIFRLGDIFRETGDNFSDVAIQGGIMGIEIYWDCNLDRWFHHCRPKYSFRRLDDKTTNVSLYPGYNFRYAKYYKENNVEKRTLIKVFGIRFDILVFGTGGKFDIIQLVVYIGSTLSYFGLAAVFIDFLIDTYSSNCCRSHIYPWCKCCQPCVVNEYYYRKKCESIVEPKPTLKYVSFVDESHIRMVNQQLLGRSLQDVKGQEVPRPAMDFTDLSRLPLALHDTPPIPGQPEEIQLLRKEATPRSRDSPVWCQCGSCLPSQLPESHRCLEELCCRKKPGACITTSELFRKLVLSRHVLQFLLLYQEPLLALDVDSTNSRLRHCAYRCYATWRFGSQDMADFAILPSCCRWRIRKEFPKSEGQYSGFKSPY
Excerpt: Certain compounds such as benzoylbenzoyl adenosine triphosphate (bbATP) are known to be agonists of the P2X7 receptor, effecting the formation of pores in the plasma membrane (Drug Development Research (1996), 37(3), p.126). Consequently, when the receptor is activated using bbATP in the presence of ethidium bromide (a fluorescent DNA probe), an increase in the fluorescence of intracellular DNA-bound ethidium bromide is observed. The increase in fluorescence can be used as a measure of P2X7 receptor activation and therefore to quantify the effect of a compound on the P2X7 receptor.
In this manner, each of the title compounds of the Examples was tested for antagonist activity at the P2X7 receptor. Thus, the test was performed in 96-well flat bottomed microtitre plates, the wells being filled with 250 μl of test solution comprising 200 μl of a suspension of THP-1 cells (2.5×10^6 cells/ml) containing 10^−4M ethidium bromide, 25 μl of a high potassium buffer solution containing 10^−5M bbATP, and 25 μl of the high potassium buffer solution containing 3×10^−5M test compound. The plate was covered with aplastics sheet and incubated at 37° C. for one hour. The plate was then read in a Perkin-Elmer fluorescent plate reader, excitation 520 nm, emission 595 nm, slit widths: Ex 15 nm, Em 20 nm. For the purposes of comparison, bbATP (a P2X7 receptor agonist) and pyridoxal 5-phosphate (a P2X7 receptor antagonist) were used separately in the test as controls. From the readings obtained, a pIC50 figure was calculated for each test compound, this figure being the negative logarithm of the concentration of test compound necessary to reduce the bbATP agonist activity by 50%.

melting point	IC50 (P2X7 receptor)	SMILES
227 to 230 °C		Cc1ccc2nc(NCCNCCO)ccc2c1NC(=O)CC12CC3CC(CC(C3)C1)C2 (as salt: hydrochloride)
219 to 223 °C		O=C(CC12CC3CC(CC(C3)C1)C2)Nc1c(Cl)ccc2nc(NCCNCCO)ccc12 (as salt: hydrochloride)
295 °C		Cc1ccc2nc(N3CCC(N)CC3)ccc2c1NC(=O)CC12CC3CC(CC(C3)C1)C2 (as salt: hydrochloride)
291 °C		Cc1ccc2nc(N3CC[C@H](N)C3)ccc2c1NC(=O)CC12CC3CC(CC(C3)C1)C2 (as salt: hydrochloride)
147 to 150 °C		O=C(CC12CC3CC(CC(C3)C1)C2)Nc1c(Cl)ccc2nc(CC[C@@H](O)CO)ccc12 (as salt: hydrochloride)
232 to 234 °C		CNCCNc1ccc2c(NC(=O)CC34CC5CC(CC(C5)C3)C4)c(Cl)ccc2n1 (as salt: hydrochloride)
264 to 266 °C		O=C(CC12CC3CC(CC(C3)C1)C2)Nc1c(Cl)ccc2nc(NCCCNCCO)ccc12 (as salt: hydrochloride)
130 to 135 °C		O=C(CC12CC3CC(CC(C3)C1)C2)Nc1cccc2nc(CCCNCCCO)ccc12 (as salt: hydrochloride) [Example 177, 2-(1-Adamantyl)-N-(2-{3-[(3-hydroxypropyl)amino]propyl}quinolin-5-yl)acetamide Dihydrochloride]
276 °C		Cc1ccc2nc(N3CCNCC3)ccc2c1NC(=O)CC12CC3CC(CC(C3)C1)C2 (as salt: hydrochloride) [Example 178, 2-(1-Adamantyl)-N-(6methyl-2-piperazin-1-ylquinolin-5-yl)acetamide Dihydrochloride]
280 to 283 °C		O=C(CC12CC3CC(CC(C3)C1)C2)Nc1c(Cl)ccc2nc(N3CCNCC3)ccc12 (as salt: hydrochloride) [Example 207, 2-(1-Adamantyl)-N-(6-chloro-2-piperazin-1-ylquinolin-5-yl)acetamide]
125 to 127 °C (dec.)		O=C(NCC12CC3CC(CC(C3)C1)C2)c1cccc2ncccc12 (as salt: trifluoroacetate)
90 to 91 °C		O=C(CC12CC3CC(CC(C3)C1)C2)Nc1c(Cl)ccc2nc(CN[C@@H]3CCNC3)ccc12 (as salt: trifluoroacetate)
132 to 136 °C		O=C(CC12CC3CC(CC(C3)C1)C2)Nc1c(Cl)ccc2nc(CN3CCNCC3)ccc12 (as salt: trifluoroacetate)
103 to 107 °C		Cc1ccc2nc(NCCO)ccc2c1NC(=O)CC12CC3CC(CC(C3)C1)C2 (as salt: trifluoroacetic acid salt) [Example 13, 2-(1-Adamantyl)-N-{2[(2-hydroxyethyl)amino]-6-methylquinolin-5-yl}acetamide]
193 to 195 °C		Cc1ccc2nc(N(C)CCN(C)C)ccc2c1NC(=O)CC12CC3CC(CC(C3)C1)C2 (as salt: trifluoroacetic acid salt) [Example 14, 2-(1-Adamantyl)-N-{2-[[2-(dimethylamino)ethyl](methyl)amino]-6-methylquinolin-5-yl}acetamide]
219 to 220 °C		O=C(CC12CC3CC(CC(C3)C1)C2)Nc1c(Cl)ccc2ncccc12 [Example 5, 2-(1-Adamantyl)-N-(6-chloroquinolin-5-yl)acetamide]
	0.00891 µM	O=C(CC12CC3CC(CC(C3)C1)C2)Nc1cccc2nc(NCCCO)ccc12 [Example 6, 2-(1-Adamantyl)-N-{2-[(3-hydroxypropyl)amino]quinolin-5-yl}acetamide]
168 to 174 °C		Cc1ccc2nc(NCCCO)ccc2c1NC(=O)CC12CC3CC(CC(C3)C1)C2 [Example 12, 2(1-Adamantyl)-N-{2-[(3-hydroxypropyl)amino]-6-methylquinolin-5-yl}acetamide]
	0.0794 µM	O=C(CC12CC3CC(CC(C3)C1)C2)Nc1cccc2cnccc12 [Example 160, 2-(1-Adamantyl)-N-isoquinolin-5-ylacetamide]
217 to 224 °C		CNCCCNc1ccc2c(NC(=O)CC34CC5CC(CC(C5)C3)C4)c(C)ccc2n1 [Example 204, 2-(1-Adamantyl)-N-(6-methyl-2-{[3-(methylamino)propyl]amino}quinolin-5-yl)acetamide]

Further lines, the compound ahead of its results:

SMILES	melting point	IC50 (P2X7 receptor)
CNCCCN(C)c1ccc2c(C(=O)NCC34CC5CC(CC(C5)C3)C4)c(Cl)ccc2n1 (as salt: TFA) [Example 208, N-(1-Adamantylmethyl)-6-chloro-2-{methyl[3-(methylamino)propyl]amino}quinoline-5-carboxamide]	195 to 200 °C	
CNCCCc1cccc2c(C(=O)NCC34CC5CC(CC(C5)C3)C4)ccnc12 (as salt: hydrochloride)	243 to 246 °C (dec.)	
O=C(NCC12CC3CC(CC(C3)C1)C2)c1cccc2nc(CCCNCCCO)ccc12 (as salt: hydrochloride)	150 to 152 °C	
Cc1ccc2nc(N3CCN(CCO)CC3)ccc2c1NC(=O)CC12CC3CC(CC(C3)C1)C2 (as salt: hydrochloride)	224 °C	
Cc1ccc2nc(N3CC[C@H](NC(=O)N4CC[C@H](N)C4)C3)ccc2c1NC(=O)CC12CC3CC(CC(C3)C1)C2 (as salt: hydrochloride)	270 °C	
CNCCCc1ccc2c(C(=O)NCC34CC5CC(CC(C5)C3)C4)cccc2n1 (as salt: hydrochloride)	158 to 160 °C	
CNCCCc1ccc2c(C(=O)NCC34CC5CC(CC(C5)C3)C4)c(Cl)ccc2n1 (as salt: hydrochloride) [Example 167, N-(1-Adamantylmethyl)-6-chloro-2-[3-(methylamino)propyl]quinoline-5-carboxamide Sesquihydrochloride]	184 to 185 °C	
O=C(NCC12CC3CC(CC(C3)C1)C2)c1c(Cl)ccc2nc(CN3CCNCC3)ccc12 (as salt: hydrochloride) [Example 170, N-(1-Adamantylmethyl)-6-chloro-2-(piperazin-1-ylmethyl)quinoline-5-carboxamide Hydrochloride]	208 °C (dec.)	
CCNCCCc1ccc2c(C(=O)NCC34CC5CC(CC(C5)C3)C4)cccc2n1 (as salt: hydrochloride) [Example 173, N-(1-Adamantylmethyl)-2-[3-(ethylamino)propyl]quinoline-5-carboxamide Dihydrochloride]	150 to 155 °C	
Cc1ccc2nc(N3CCC(NCCO)CC3)ccc2c1NC(=O)CC12CC3CC(CC(C3)C1)C2 (as salt: hydrochloride) [Example 181, 2-(1-Adamantyl)-N-(2-{4-[(2-hydroxyethyl)amino]piperidin-1-yl}-6-methylquinolin-5-yl)acetamide Dihydrochloride]	306 °C	
O=C(NCC12CC3CC(CC(C3)C1)C2)c1cc(CCCNCCCO)nc2ccccc12 (as salt: salt) [Example 168, N-(1-Adamantylmethyl)-2-{3-[(3-hydroxypropyl)amino]propyl}quinoline-4-carboxamide Benzoic Acid Salt]	147 to 148 °C (dec.)	
CNCCCc1ccc2c(C(=O)NCC34CC5CC(CC(C5)C3)C4)c(Cl)ccc2n1 [Example 167, N-(1-Adamantylmethyl)-6-chloro-2-[3-(methylamino)propyl]quinoline-5-carboxamide Sesquihydrochloride]		0.00501 µM
O=C(NCC12CC3CC(CC(C3)C1)C2)c1cc(CCCNCCCO)nc2ccccc12 [Example 168, N-(1-Adamantylmethyl)-2-{3-[(3-hydroxypropyl)amino]propyl}quinoline-4-carboxamide Benzoic Acid Salt]		0.0251 µM
O=C(NCC12CC3CC(CC(C3)C1)C2)c1c(Cl)ccc2nc(CN3CCNCC3)ccc12 [Example 170, N-(1-Adamantylmethyl)-6-chloro-2-(piperazin-1-ylmethyl)quinoline-5-carboxamide Hydrochloride]		0.0263 µM
O=C(CC12CC3CC(CC(C3)C1)C2)Nc1c(Cl)ccc2nc(CN3CCN(CCO)CC3)ccc12 [Example 196, 2-(1-Adamantyl)-N-(6chloro-2-{[4-(2-hydroxyethyl)piperazin-1-yl]methyl}quinlolin-5-yl)acetamide]		0.0186 µM
